{"source": "patent US20100028366A1", "about": "“SYNERGISTIC EFFECT BETWEEN A […] AND ANOTHER OXIDATIVE INDUCING SYSTEM FOR TREATING TUMORS” (priority 2005, published 2010)", "assay_type_in_all_cases": "cell-based, canine", "key": {"W&Wlis cells [1]": {"system": "W&Wlis cells", "experiment": "Analysis of the type of death by flow cytometry (annexin V-FITC/propidium iodide)", "set-up": "Necrosis / Apoptosis: unit not given here", "procedure": "The annexin V-FITC and propidium iodide assay was performed in parallel by flow cytometry. The pattern of death of the system was analyzed when adding 5 mEU/ml of glucose oxidase and the combined therapy (5 mEU/ml of GO and 500 μg/ml of linamarin) at 48 hours, followed by the control of untreated cells and of the cells incubated with 500 μg/ml of linamarin at 96 hours. Furthermore, another group of cells was subjected to the same conditions except 10 mM of N-acetyl cysteine (NAC) were added. The cells treated with the combined therapy were subsequently studied at 48 hours in the absence and presence of 100 μM of Z-VAD-fmk, followed by the control of treatment of the cells with UV in the same conditions. Finally, the cells treated with the combined therapy were shown at 48 hours in the absence and presence of 300 μM of 1,5-isoquinolinediol (DIQ), observing that the pattern of death is not modified when PARP-1 is inhibited (FIG. 4).\n10^5 W&Wlis cells were seeded in test tubes with a screw-on cap and flat side (Nunc). After 24 hours, different amounts of linamarin (50, 200 or 500 μg/ml) and glucose oxidase (5 mEU/ml) were added in the specified cases. In the appropriate assays, the medium was supplemented with N-acetyl cysteine (10 mM), 1,5-isoquinolinediol (300 μM) or Z-VAD-fmk (100 μM). […] They were centrifuged for 5 minutes at 1200 rpm and the cell precipitate was washed first with PBS and then with binding buffer (0.1 M Hepes/NaOH pH 7.4, 1.4 M NaCl and 25 mM CaCl2). The cells were again precipitated and resuspended in 100 μl of binding buffer supplemented with 5 μl of annexin V-FITC and 2.5 μg/ml of propidium iodide. The samples were incubated for 15 minutes in the dark. Data acquisition and analysis was carried out by means of a FACSCalibur flow cytometer (DB Biosciences) with the Cell Quest program."}, "W&Wlis cells [2]": {"system": "W&Wlis cells", "experiment": "Analysis of the type of death by flow cytometry (annexin V-FITC/propidium iodide)", "set-up": "unit not given here", "conditions": "Table 5; Control cells; DIQ (300 μM); 32 hours"}, "W&Wlis cells [3]": {"system": "W&Wlis cells", "experiment": "DNA content analysis by flow cytometry, labeling with propidium iodide", "set-up": "unit not given here", "conditions": "UV (24 hours), 12.5 J/m^2; Z-VAD-fmk 100 μM; UV Control = 66.14"}, "[4]": {"conditions": "Table 5, Control cells, DIQ (300 μM), 48 hours"}, "[5]": {"conditions": "0 μg lin, Without GO, 96 hours, NAC (10 mM)"}, "[6]": {"conditions": "Table 4, 0 μg lin, Without GO, 72 hours, Z-VAD-fmk (100 μM)"}}, "note": "Peptide text beside a SMILES is read from it. * marks the point of attachment. Cbz = O=C(OCc1ccccc1)*; CH2F = FC*"}
{"smiles": "Oc1cccc2c(O)nccc12", "note": "[DIQ, 1,5-isoquinolinediol, reference compound]", "values": [{"measurement": "Apoptosis", "setting": "W&Wlis cells [1]; Table 5, Control cells, DIQ (300 μM), 32 hours", "value": 8.15}, {"measurement": "Apoptosis", "setting": "W&Wlis cells [1]; [4]", "value": 20.16}, {"measurement": "Necrosis", "setting": "W&Wlis cells [1]; [4]", "value": 29.59}, {"measurement": "Necrosis", "setting": "W&Wlis cells [2]", "value": 17.62}]}
{"smiles": "CC(=O)N[C@@H](CS)C(=O)O", "note": "[NAC, N-acetyl cysteine, reference compound]", "values": [{"measurement": "Apoptosis", "setting": "W&Wlis cells [1]; [5]", "value": 16.17}, {"measurement": "Necrosis", "setting": "W&Wlis cells [1]; [5]", "value": 13.46}]}
{"smiles": "COC(=O)C[C@H](NC(=O)[C@H](C)NC(=O)[C@@H](NC(=O)OCc1ccccc1)C(C)C)C(=O)CF", "note": "[Z-VAD-fmk, reference compound] (Cbz-Val-Ala-Asp(OMe)-CH2F)", "values": [{"measurement": "DNA content by flow cytometry, labeling with propidium iodide", "setting": "W&Wlis cells [3]", "value": "Z-VAD-fmk = 2.71"}, {"measurement": "Apoptosis", "setting": "W&Wlis cells [1]; [6]", "value": 2.66}, {"measurement": "Necrosis", "setting": "W&Wlis cells [1]; [6]", "value": 37.25}, {"measurement": "inhibition of UV radiation-induced apoptosis", "setting": "W&Wlis cells [1]; Z-VAD-fmk (100 μM), UV 12.5 J/m^2, DNA content and annexin V-FITC/propidium iodide", "value": "complete inhibition"}]}
